# Assay results published in patent US20260355196A1, “INHIBITORS AND DEGRADERS OF PIP4K PROTEIN” (Larkspur Biosciences, Inc., priority 2023, published 2026).
# Target: T1, PIP4K2C (Homo sapiens, UniProt Q8TBX8)
# T1 sequence (Q8TBX8 1-421): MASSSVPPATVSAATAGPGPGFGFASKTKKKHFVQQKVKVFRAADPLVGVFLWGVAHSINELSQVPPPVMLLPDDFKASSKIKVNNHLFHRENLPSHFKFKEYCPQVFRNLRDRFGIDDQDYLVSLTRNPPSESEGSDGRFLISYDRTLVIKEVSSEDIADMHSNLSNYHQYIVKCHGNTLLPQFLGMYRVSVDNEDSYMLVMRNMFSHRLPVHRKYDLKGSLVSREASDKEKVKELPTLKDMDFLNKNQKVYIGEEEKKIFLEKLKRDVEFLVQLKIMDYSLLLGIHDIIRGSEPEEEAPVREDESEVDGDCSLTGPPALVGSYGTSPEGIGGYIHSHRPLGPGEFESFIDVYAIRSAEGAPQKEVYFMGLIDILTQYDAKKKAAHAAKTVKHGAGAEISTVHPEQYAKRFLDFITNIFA
# Assay: Enzyme Binding Assay (KINOMEscan): active site-directed competition binding to an immobilized ligand
# Parameters: purchased Eurofins DiscoverX, San Diego, CA 87-0007-1094
# Settings: 11-point dose response, duplicate, top concentration 5 micromolar; read-out: Pip4k2c Kd: IC50
# Method in brief: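 IC50 values come from Hill-equation fits (Levenberg-Marquardt) to 11-point duplicate titrations starting at 5 micromolar. Read-out is competition of compound with an immobilized ligand for the kinase active site.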
row,SMILES,IC50 [nM]
1,"CC(=O)N1CCC(Nc2ncc(F)c(-c3cccc(C4COC4)c3)n2)CC1 [Compound 169, 1-(4-((5-fluoro-4-(3-(oxetan-3-yl)phenyl)pyrimidin-2-yl)amino)piperidin-1-yl)ethan-1-one]",< 500
2,"CC(=O)N1CCC(Nc2ncc(F)c(-c3cccc(C4(O)COC4)c3)n2)CC1 [Compound 171, 1-(4-((5-fluoro-4-(3-(3-hydroxyoxetan-3-yl)phenyl)pyrimidin-2-yl)amino)piperidin-1-yl)ethan-1-one]",< 500
3,"CC(=O)N1CCC(Nc2ncc(F)c(-c3ccnc(C(C)(C)O)c3)n2)CC1 [Compound 172, 1-(4-((5-fluoro-4-(2-(2-hydroxypropan-2-yl)pyridin-4-yl)pyrimidin-2-yl)amino)piperidin-1-yl)ethan-1-one]",< 500
4,"CC(=O)N[C@H]1CC[C@H](Nc2ncc(F)c(-c3cccc(C4CCCN(C(C)=O)C4)c3)n2)CC1 (stereo partly drawn) [Compound 174, trans-N-(4-((4-(3-(1-acetylpiperidin-3-yl)phenyl)-5-fluoropyrimidin-2-yl)amino)cyclohexyl)acetamide]",< 500
5,"CC(=O)N[C@H]1CC[C@H](Nc2ncc(F)c(-c3cccc(C4COC4)c3)n2)CC1 [Compound 175, N-(trans-4-((5-fluoro-4-(3-(oxetan-3-yl)phenyl)pyrimidin-2-yl)amino)cyclohexyl)acetamide]",< 500
6,"CC(=O)N[C@H]1CC[C@H](Nc2ncc(F)c(-c3cccc(C4(O)COC4)c3)n2)CC1 [Compound 176, N-(trans-4-((5-fluoro-4-(3-(3-hydroxyoxetan-3-yl)phenyl)pyrimidin-2-yl)amino)cyclohexyl)acetamide]",< 500
7,"CC(=O)N1CCC(Nc2ncc(F)c(-c3cccc(C4CCCN(C(C)=O)C4)c3)n2)CC1 (centres unmarked) [Compound 179, 1-(4-((4-(3-(1-acetylpiperidin-3-yl)phenyl)-5-fluoropyrimidin-2-yl)amino)piperidin-1-yl)ethan-1-one]",< 500
8,"NC(=O)[C@H]1CC[C@H](Nc2ncc(F)c(-c3cccc(C4COC4)c3)n2)CC1 [Compound 180, trans-4-((5-fluoro-4-(3-(oxetan-3-yl)phenyl)pyrimidin-2-yl)amino)cyclohexane-1-carboxamide]",< 500
9,"NC(=O)[C@H]1CC[C@H](Nc2ncc(F)c(-c3cccc(C4(O)COC4)c3)n2)CC1 [Compound 181, trans-4-((5-fluoro-4-(3-(3-hydroxyoxetan-3-yl)phenyl)pyrimidin-2-yl)amino)cyclohexane-1-carboxamide]",< 500
10,"CC(=O)N[C@H]1CC[C@H](Nc2ncc(F)c(N3CCOCC3)n2)CC1 [Compound 182, trans-N-(4-((5-fluoro-4-morpholinopyrimidin-2-yl)amino)cyclohexyl)acetamide]",1000 to 5000
11,"CC(=O)N1CCC(Nc2ncc(F)c(-c3cccc(-c4cc[nH]c(=O)c4)c3)n2)CC1 [Compound 187, 4-(3-(2-((1-acetylpiperidin-4-yl)amino)-5-fluoropyrimidin-4-yl)phenyl)pyridin-2(1H)-one]",< 500
12,"CC(=O)N[C@H]1CC[C@H](Nc2ncc(F)c(-c3cccc(-c4cc[nH]c(=O)c4)c3)n2)CC1 [Compound 188, trans-N-(4-((5-fluoro-4-(3-(2-oxo-1,2-dihydropyridin-4-yl)phenyl)pyrimidin-2-yl)amino)cyclohexyl)acetamide]",< 500
13,"CC(=O)N1CCC(Nc2ncc(F)c(N3CCCC(n4ccccc4=O)C3)n2)CC1 (centres unmarked) [Compound 189, 1-(1-(2-((1-acetylpiperidin-4-yl)amino)-5-fluoropyrimidin-4-yl)piperidin-3-yl)pyridin-2(1H)-one]",1000 to 5000
14,"CC(=O)N[C@H]1CC[C@H](Nc2ncc(Cl)c(-c3cc(C4CC4)[nH]n3)n2)CC1 [Compound 190, trans-N-((1r,4r)-4-((5-chloro-4-(5-cyclopropyl-1H-pyrazol-3-yl)pyrimidin-2-yl)amino)cyclohexyl)acetamide]",< 500
15,"CNC(=O)[C@H]1CC[C@@H](Nc2ncc(Cl)c(-c3cc(C4CC4)[nH]n3)n2)CC1 [Compound 191, cis-(1s,4s)-4-((5-chloro-4-(5-cyclopropyl-1H-pyrazol-3-yl)pyrimidin-2-yl)amino)-N-methylcyclohexane-1-carboxamide]",< 500
16,"CC(=O)N1CCC[C@H](Nc2ncc(Cl)c(-c3cc(C4CC4)[nH]n3)n2)C1 [Compound 192, (S)-1-(3-((5-chloro-4-(5-cyclopropyl-1H-pyrazol-3-yl)pyrimidin-2-yl)amino)piperidin-1-yl)ethan-1-one]",< 500

row,SMILES,IC50 [nM]
1,"CNC(=O)[C@H]1C[C@@H](Nc2ncc(Cl)c(-c3cnn(-c4ccc[nH]c4=O)c3)n2)C1 [Compound 193, cis-3-((5-chloro-4-(1-(2-oxo-1,2-dihydropyridin-3-yl)-1H-pyrazol-4-yl)pyrimidin-2-yl)amino)-N-methylcyclobutane-1-carboxamide]",< 500
2,"CC(=O)N1CCC[C@H](Nc2ncc(Cl)c(-c3cccc(-c4ccc(F)cc4)n3)n2)C1 [Compound 194, (S)-1-(3-((5-chloro-4-(6-(4-fluorophenyl)pyridin-2-yl)pyrimidin-2-yl)amino)piperidin-1-yl)ethan-1-one]",1000 to 5000
3,"NC(=O)[C@H]1CC[C@H](Nc2ncc(F)c(-c3cccc(-c4cc[nH]c(=O)c4)c3)n2)CC1 [Compound 195, trans-4-((5-fluoro-4-(3-(2-oxo-1,2-dihydropyridin-4-yl)phenyl)pyrimidin-2-yl)amino)cyclohexane-1-carboxamide]",< 500
4,"CC(=O)N1CCC(Nc2ncc(F)c(N3CCCC(c4ccc[nH]c4=O)C3)n2)CC1 (centres unmarked) [Compound 196, 3-[1-[2-[(1-acetyl-4-piperidyl)amino]-5-fluoro-pyrimidin-4-yl]-3-piperidyl]-1H-pyridin-2-one]",< 500
5,"CC(=O)N[C@H]1CC[C@H](Nc2ncc(F)c(N3CCC[C@@H](C(=O)NC4CC4)C3)n2)CC1 [Compound 197, trans-(R)-1-(2-((4-acetamidocyclohexyl)amino)-5-fluoropyrimidin-4-yl)-N-cyclopropylpiperidine-3-carboxamide]",1000 to 5000
6,"CC(=O)N[C@H]1CC[C@H](Nc2ncc(F)c(N3CCC[C@H](C(=O)NC4CC4)C3)n2)CC1 [Compound 198, trans-(S)-1-(2-((4-acetamidocyclohexyl)amino)-5-fluoropyrimidin-4-yl)-N-cyclopropylpiperidine-3-carboxamide]",1000 to 5000
7,"CC(=O)N1CCC(Nc2ncc(F)c(N3CCCC(c4ccc(=O)[nH]c4)C3)n2)CC1 (centres unmarked) [Compound 199, 5-(1-(2-((1-acetylpiperidin-4-yl)amino)-5-fluoropyrimidin-4-yl)piperidin-3-yl)pyridin-2(1H)-one]",500 to 1000
8,"CC(=O)N1CCC(Nc2ncc(F)c(-c3cccc(-c4ccc(=O)[nH]c4)c3)n2)CC1 [Compound 202, 5-(3-(2-((1-acetylpiperidin-4-yl)amino)-5-fluoropyrimidin-4-yl)phenyl)pyridin-2(1H)-one]",< 500
9,"CC(=O)N[C@H]1CC[C@H](Nc2ncc(F)c(-c3cccc(-c4ccc(=O)[nH]c4)c3)n2)CC1 [Compound 203, trans-N-(4-((5-fluoro-4-(3-(6-oxo-1,6-dihydropyridin-3-yl)phenyl)pyrimidin-2-yl)amino)cyclohexyl)acetamide]",< 500
10,"NC(=O)[C@@H]1CCC[C@H](Nc2ncc(F)c(-c3cccc(-c4ccc[nH]c4=O)c3)n2)C1 [Compound 204, (1R,3S)-3-((5-fluoro-4-(3-(2-oxo-1,2-dihydropyridin-3-yl)phenyl)pyrimidin-2-yl)amino)cyclohexane-1-carboxamide]",< 500
11,"CC(=O)N1CCC(Nc2ncc(F)c(N3CCOCC3)n2)CC1 [Compound 205, 1-(4-((5-fluoro-4-morpholinopyrimidin-2-yl)amino)piperidin-1-yl)ethan-1-one]",500 to 1000
12,"CC(=O)N1CCC(Nc2ncc(F)c(-c3cccc(N4CCOCC4=O)c3)n2)CC1 [Compound 206, 4-(3-(2-((1-acetylpiperidin-4-yl)amino)-5-fluoropyrimidin-4-yl)phenyl)morpholin-3-one]",< 500
13,"Cc1ccc(=O)n(-c2cccc(-c3nc(N[C@H]4CCC[C@@H](C(N)=O)C4)ncc3F)c2)c1 [Compound 207, (1R,3S)-3-((5-fluoro-4-(3-(5-methyl-2-oxopyridin-1 (2H)-yl)phenyl)pyrimidin-2-yl)amino)cyclohexane-1-carboxamide]",< 500
14,"NC(=O)[C@@H]1CCC[C@H](Nc2ncc(F)c(-c3cccc(-n4cc(C(F)(F)F)ccc4=O)c3)n2)C1 [Compound 208, (1R,3S)-3-((5-fluoro-4-(3-(2-oxo-5-(trifluoromethyl)pyridin-1 (2H)-yl)phenyl)pyrimidin-2-yl)amino)cyclohexane-1-carboxamide]",< 500
15,"CC(=O)N1CCC(Nc2ncc(F)c(-c3cccc(N4CCC[C@@H](O)C4)c3)n2)CC1 [Compound 209, (R)-1-(4-((5-fluoro-4-(3-(3-hydroxypiperidin-1-yl)phenyl)pyrimidin-2-yl)amino)piperidin-1-yl)ethan-1-one]",< 500
16,"CC(=O)N1CCC(Nc2ncc(F)c(-c3cccc(N4CCC[C@H](O)C4)c3)n2)CC1 [Compound 210, (S)-1-(4-((5-fluoro-4-(3-(3-hydroxypiperidin-1-yl)phenyl)pyrimidin-2-yl)amino)piperidin-1-yl)ethan-1-one]",< 500
